Laboratory results taken from US10131652B2, “Pyrimidinyloxy benzene derivatives as herbicides” (E. I. DU PONT DE NEMOURS AND COMPANY, priority 2014, dated 2018).
Read-outs that look alike come from different tables or passages of the source.

Tests used:
Assay in all cases: Test D pre-/postemergence plant response
Format in all cases: in vivo
[1] = tested on: large (Lg) crabgrass (Digitaria sanguinalis); settings: Digitaria sanguinalis; for pest or weed control at 62 g/ha: 62 g ai/ha; for pest or weed control at 125 g/ha: 125 g ai/ha
Description: (§1) Seeds of plant species selected from blackgrass (Alopecurus myosuroides), Italian ryegrass (Lolium multiflorum), winter wheat (Triticum aestivum), galium (catchweed bedstraw, Galium aparine), corn (Zea mays), large (Lg) crabgrass (Digitaria sanguinalis), giant foxtail (Setaria faberii), johnsongrass (Sorghum halepense), lambsquarters (Chenopodium album), morningglory (Ipomoea coccinea), yellow nutsedge (Cyperus esculentus), pigweed (Amaranthus retroflexus), ragweed (common ragweed, Ambrosia elatior), soybean (Glycine max), bamyardgrass (Echinochloa crus-galli), oilseed rape (Brassica napus), waterhemp (common waterhemp, Amaranthus rudis), and velvetleaf (Abutilon theophrasti) were planted into a blend of loam soil and sand and treated preemergence with test chemicals formulated in a non-phytotoxic solvent mixture which included a surfactant. At the same time, plants selected from these crop and weed species and also kochia (Kochia scoparia), wild oat (Avena fatua), and chickweed (common chickweed, Stellaria media) were planted in pots containing Redi-Earth® planting medium (Scotts Company, 14111 Scottslawn Road, Marysville, Ohio 43041) comprising spaghnum peat moss, vermiculite, wetting agent and starter nutrients and treated with postemergence applications of test chemicals formulated in the same manner. Plants ranged in height from 2 to 18 cm (1- to 4-leaf stage) for postemergence treatments. Treated plants and controls were maintained in a greenhouse for 13 to 15 days, after which time all species were compared to controls and visually evaluated. Plant response ratings, summarized in Table D, are based on a scale of 0 to 100 where 0 is no effect and 100 is complete control. A dash (-) response means no test result.

[2] = tested on: morningglory (Ipomoea coccinea); settings: Ipomoea; for pest or weed control at 16 g/ha: 16 g ai/ha; for pest or weed control at 31 g/ha: 31 g ai/ha; for pest or weed control at 62 g/ha: 62 g ai/ha; for pest or weed control at 125 g/ha: 125 g ai/ha
Description: as §1

[3] = tested on: pigweed (Amaranthus retroflexus); settings: Amaranthus retroflexus; for pest or weed control at 16 g/ha: 16 g ai/ha; for pest or weed control at 31 g/ha: 31 g ai/ha; for pest or weed control at 62 g/ha: 62 g ai/ha; for pest or weed control at 125 g/ha: 125 g ai/ha
Description: as §1

[4] = tested on: ragweed (common ragweed, Ambrosia elatior); settings: Ambrosia artemisiifolia; for pest or weed control at 16 g/ha: 16 g ai/ha; for pest or weed control at 31 g/ha: 31 g ai/ha; for pest or weed control at 62 g/ha: 62 g ai/ha; for pest or weed control at 125 g/ha: 125 g ai/ha
Description: as §1

[5] = tested on: soybean (Glycine max); settings: Glycine max; for plant injury at 16 g/ha: 16 g ai/ha; for plant injury at 31 g/ha: 31 g ai/ha; for plant injury at 62 g/ha: 62 g ai/ha; for plant injury at 125 g/ha: 125 g ai/ha
Description: as §1

[6] = tested on: waterhemp (common waterhemp, Amaranthus rudis); settings: Amaranthus tuberculatus; for pest or weed control at 16 g/ha: 16 g ai/ha; for pest or weed control at 31 g/ha: 31 g ai/ha; for pest or weed control at 62 g/ha: 62 g ai/ha; for pest or weed control at 125 g/ha: 125 g ai/ha
Description: as §1

[7] = tested on: yellow nutsedge (Cyperus esculentus); settings: Cyperus, pre-emergence, Preemergence
Description: as §1

[8] = post-emergence, Postemergence, scale 0 to 100, 0 no effect, 100 complete control, read-out: Plant response rating, Crabgrass, Large
[9] = post-emergence, Postemergence, scale 0 to 100 (0 no effect, 100 complete control), read-out: Morningglory plant response rating
[10] = post-emergence, Postemergence, scale 0 to 100, 0 no effect, 100 complete control, read-out: Plant response rating, Morningglory
[11] = pre-emergence, Preemergence, scale 0 to 100 (0 no effect, 100 complete control), read-out: Plant response rating, Morningglory
[12] = post-emergence, Postemergence, scale 0 to 100 (0 no effect, 100 complete control), read-out: Pigweed plant response rating
[13] = post-emergence, Postemergence, scale 0 to 100, 0 no effect, 100 complete control, read-out: Plant response rating, Pigweed
[14] = pre-emergence, Preemergence, scale 0 to 100 (0 no effect, 100 complete control), read-out: Plant response rating, Pigweed
[15] = post-emergence, Postemergence, scale 0 to 100 (0 no effect, 100 complete control), read-out: Ragweed plant response rating
[16] = post-emergence, Postemergence, scale 0 to 100, 0 no effect, 100 complete control, read-out: Plant response rating, Ragweed
[17] = pre-emergence, Preemergence, scale 0 to 100 (0 no effect, 100 complete control), read-out: Plant response rating, Ragweed
[18] = post-emergence, Postemergence, scale 0 to 100 (0 no effect, 100 complete control), read-out: Soybean plant response rating
[19] = post-emergence, Postemergence, scale 0 to 100, 0 no effect, 100 complete control, read-out: Plant response rating, Soybean
[20] = pre-emergence, Preemergence, scale 0 to 100 (0 no effect, 100 complete control), read-out: Plant response rating, Soybean
[21] = post-emergence, Postemergence, scale 0 to 100 (0 no effect, 100 complete control), read-out: Waterhemp plant response rating
[22] = post-emergence, Postemergence, scale 0 to 100, 0 no effect, 100 complete control, read-out: Plant response rating, Waterhemp
[23] = pre-emergence, Preemergence, scale 0 to 100 (0 no effect, 100 complete control), read-out: Plant response rating, Waterhemp

`FC(F)c1cc(-c2ccccc2Oc2ncc(Cl)cn2)on1` [Compound 53, 5-chloro-2-[2-[3-(difluoromethyl)-5-isoxazolyl]phenoxy]pyrimidine] showed a pest or weed control at 62 g/ha [1, 8] of 15%, a pest or weed control at 125 g/ha [1, 8] of 30% and a pest or weed control at 125 g/ha ([1]; pre-emergence, Preemergence, read-out: Plant response rating (scale 0 to 100), Crabgrass, Large) of 100%. It also gave a pest or weed control at 16 g/ha ([1]; pre-emergence, Preemergence, 16 g ai/ha, scale 0 to 100 (0 no effect, 100 complete control), read-out: Plant response rating, Crabgrass, Large) of 65%, a pest or weed control at 31 g/ha ([1]; pre-emergence, Preemergence, 31 g ai/ha, scale 0 to 100 (0 no effect, 100 complete control), read-out: Plant response rating, Crabgrass, Large) of 95% and a pest or weed control at 62 g/ha ([1]; pre-emergence, Preemergence, scale 0 to 100 (0 no effect, 100 complete control), read-out: Plant response rating, Crabgrass, Large) of 98%. For the same compound, the pest or weed control at 16 g/ha [2, 9] was 50%, the pest or weed control at 31 g/ha [2, 9] was 80% and the pest or weed control at 62 g/ha [2, 10] was 85%. It also gave a pest or weed control at 125 g/ha [2, 10] of 55%, a pest or weed control at 125 g/ha ([2]; pre-emergence, Preemergence, read-out: Plant response rating (scale 0 to 100), Morningglory) of 40% and a pest or weed control at 16 g/ha [2, 11] of 0%. It also gave a pest or weed control at 31 g/ha [2, 11] of 0%, a pest or weed control at 62 g/ha [2, 11] of 45% and a pest or weed control at 16 g/ha [3, 12] of 85%. The pest or weed control at 31 g/ha [3, 12] was 90%, the pest or weed control at 62 g/ha [3, 13] was 90% and the pest or weed control at 125 g/ha [3, 13] was 100%. For the same compound, the pest or weed control at 125 g/ha ([3]; pre-emergence, Preemergence, read-out: Plant response rating (scale 0 to 100), Pigweed) was 100%, the pest or weed control at 16 g/ha [3, 14] was 95% and the pest or weed control at 31 g/ha [3, 14] was 100%. It also gave a pest or weed control at 62 g/ha [3, 14] of 100%, a pest or weed control at 16 g/ha [4, 15] of 50% and a pest or weed control at 31 g/ha [4, 15] of 50%. For the same compound, the pest or weed control at 62 g/ha [4, 16] was 55%, the pest or weed control at 125 g/ha [4, 16] was 55% and the pest or weed control at 125 g/ha ([4]; pre-emergence, Preemergence, read-out: Plant response rating (scale 0 to 100), Ragweed) was 85%. It also gave a pest or weed control at 16 g/ha [4, 17] of 0%, a pest or weed control at 31 g/ha [4, 17] of 40% and a pest or weed control at 62 g/ha [4, 17] of 55%. The plant injury at 16 g/ha [5, 18] was 60%, the plant injury at 31 g/ha [5, 18] was 90% and the plant injury at 62 g/ha [5, 19] was 95%. It also gave a plant injury at 125 g/ha [5, 19] of 98%, a plant injury at 125 g/ha ([5]; pre-emergence, Preemergence, read-out: Plant response rating (scale 0 to 100), Soybean) of 80% and a plant injury at 16 g/ha [5, 20] of 0%. For the same compound, the plant injury at 31 g/ha [5, 20] was 25%, the plant injury at 62 g/ha [5, 20] was 55% and the pest or weed control at 16 g/ha [6, 21] was 80%. It also gave a pest or weed control at 31 g/ha [6, 21] of 90%, a pest or weed control at 62 g/ha [6, 22] of 90% and a pest or weed control at 125 g/ha [6, 22] of 100%. The pest or weed control at 125 g/ha ([6]; pre-emergence, Preemergence, read-out: Plant response rating (scale 0 to 100), Waterhemp) was 100%, the pest or weed control at 16 g/ha [6, 23] was 100% and the pest or weed control at 31 g/ha [6, 23] was 100%. For the same compound, the pest or weed control at 62 g/ha [6, 23] was 100%, the pest or weed control at 125 g/ha ([7]; 125 g ai/ha, read-out: Plant response rating (scale 0 to 100), Nutsedge, Yellow) was 5% and the pest or weed control at 16 g/ha ([7]; 16 g ai/ha, scale 0 to 100 (0 no effect, 100 complete control), read-out: Plant response rating, Nutsedge, Yellow) was 20%. It also gave a pest or weed control at 31 g/ha ([7]; 31 g ai/ha, scale 0 to 100 (0 no effect, 100 complete control), read-out: Plant response rating, Nutsedge, Yellow) of 0% and a pest or weed control at 62 g/ha ([7]; 62 g ai/ha, scale 0 to 100 (0 no effect, 100 complete control), read-out: Plant response rating, Nutsedge, Yellow) of 0%.
